SMILES strings stand for the structures.

This assay has as its target MarA (Escherichia coli, UniProt P0ACH5). Nature of the assay: MarA-activated selective marker (ccdB) cell survival assay, Example 2. Also on record: key: * indicates good inhibition of MarA; ** indicates very good inhibition of MarA. As to conditions: inhibition of MarA: cell survival under conditions of MarA expression (ccdB under MarA-activated promoter). The class given is cell-based. The text has this: In the absence of Mar A, the expression of the selective marker would be silent. For example, in the case of regulation of the cytotoxic gene ccdB, the gene would be silent and the cells would survive. Synthesis of MarA from an inducible plasmid in a suitable host would result in the activation of the MarA responsive activatable promoter and expression of the selective marker. In the case of ccdB, the gene would be expressed and result in cell death. Compounds that inhibit MarA would be identified as those that permit cell survival under conditions of MarA expression.
In the absence of MarA, the expression of the selective marker is silent and cells survive. Synthesis of MarA from an inducible plasmid in a bacterial or yeast cell leads to the activation of the inaA promoter, expression of ccdB, and subsequently results in cell death. Compounds that inhibit MarA are those that permit cell survival under conditions of MarA expression. In Table 4, * indicates good inhibition of MarA and ** indicates very good inhibition of MarA.

Sequence of MarA (P0ACH5 whole entry, looked up): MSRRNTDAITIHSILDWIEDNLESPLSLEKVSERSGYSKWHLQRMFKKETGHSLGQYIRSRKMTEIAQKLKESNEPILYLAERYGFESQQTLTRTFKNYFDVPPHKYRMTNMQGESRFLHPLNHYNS

As to `c1ccc(COn2c(-c3ccccc3)nc3ncccc32)cc1` [AX, 1-(benzyloxy)-2-phenyl-1H-imidazo[4,5-b]pyridine], the MarA inhibition class entry is “**”. Regarding `CCOC(=O)C1=C(C)N=c2sc(=Cc3ccc(-c4ccc([N+](=O)[O-])cc4C)o3)c(=O)n2C1c1ccc2c(c1)OCO2` (centres unmarked) [P, 5-Benzo[1,3]dioxol-5-yl-7-methyl-2-[5-(2-methyl-4-nitro-phenyl)-furan-2-ylmethylene]-3-oxo-2,3-dihydro-5H-thiazolo[3,2-a]pyrimidine-6-carboxylicacid ethyl ester], the MarA inhibition class result is given as “*”.

On to `c1ccc(CSc2ncc(-c3nnnn3-c3ccccc3)c(-c3ccccc3)n2)cc1` [AY, 2-(benzylthio)-4-phenyl-5-(1-phenyl-1H-1,2,3,4-tetrazol-5-yl)pyrimidine], for which the MarA inhibition class result is “**”. Regarding `O=c1cc(-c2ccc(F)cc2)oc2ccccc12` [BE, 2-(4-fluorophenyl)-4H-chromen-4-one], the MarA inhibition class result is listed as “*”. For the compound `O=[N+]([O-])c1ccc2nc(-c3ccccc3)n(OCc3cccc(C(F)(F)F)c3)c2c1` [AG, 6-Nitro-2-phenyl-1-(3-trifluoromethyl-benzyloxy)-1H-benzoimidazole], the MarA inhibition class result is reported as “**”. As for `CSc1cccc(NC(=O)CSc2nnc(-c3ccc4nonc4c3)n2C)c1` [AE, 2-(5-Benzo[1,2,5]oxadiazol-5-yl-4-methyl-4H-[1,2,4]triazol-3-ylsulfanyl)-N-(3-methylsulfanyl-phenyl)-acetamide], the MarA inhibition class result was “*”. For the compound `Cn1c(=O)c2c3oc(-c4ccc([N+](=O)[O-])cc4)nc3c(=O)n(-c3ccccc3)c2n(C)c1=O` [AK, 6,8-Dimethyl-2-(4-nitro-phenyl)-5-phenyl-5H,6H-1-oxa-3,5,6,8-tetraaza-cyclopenta[a]naphthalene-4,7,9-trione], the MarA inhibition class entry is reported as “**”.

Consider `CN(C)c1ccc(-c2cc(=O)c3ccccc3o2)cc1` [AW, 2-[4-(dimethylamino)phenyl]-4H-chromen-4-one], for which the MarA inhibition class result is reported as “**”. `CSc1nnc2c(n1)OC(c1ccc(I)o1)Nc1ccccc1-2` (centres unmarked) [A, 6-(5-Iodo-furan-2-yl)-3-methylsulfanyl-6,7-dihydro-5-oxa-1,2,4,7-tetraaza-dibenzo[a,c]cycloheptene]: the MarA inhibition class entry was “**”. Consider `CSc1nnc2c(n1)OC(c1ccc(-c3ccc([N+](=O)[O-])cc3)o1)Nc1ccccc1-2` (centres unmarked) [D, 3-Methylsulfanyl-6-[5-(4-nitro-phenyl)-furan-2-yl]-6,7-dihydro-5-oxa-1,2,4,7-tetraaza-dibenzo[a,c]cycloheptene], for which the MarA inhibition class entry was “*”.

Take `Cc1ccc(-c2nc3c(=O)n(-c4ccccc4)c4c(c(=O)n(C)c(=O)n4C)c3o2)cc1` [AL, 6,8-Dimethyl-5-phenyl-2-p-tolyl-5H,6H-1-oxa-3,5,6,8-tetraaza-cyclopenta[a]naphthalene-4,7,9-trione]: the MarA inhibition class result is on record as “*”. For `CSc1nnc2c(n1)OC(c1ccc([N+](=O)[O-])o1)Nc1ccccc1-2` (centres unmarked) [C, 3-Methylsulfanyl-6-(5-nitro-furan-2-yl)-6,7-dihydro-5-oxa-1,2,4,7-tetraaza-dibenzo[a,c]cycloheptene], the MarA inhibition class result is recorded as “*”. As for `C=CCOc1ccc(C2Nc3ccccc3-c3nnc(SCCCC)nc3O2)cc1` (centres unmarked) [I, 6-(4-Allyloxy-phenyl)-3-butylsulfanyl-6,7-dihydro-5-oxa-1,2,4,7-tetraaza-dibenzo[a,c]cycloheptene], the MarA inhibition class entry was “**”. In the case of `CCOC(=O)C1=C(C)N=c2s/c(=C/c3ccc(-c4cccc(C(F)(F)F)c4)o3)c(=O)n2C1c1ccccc1` (centres unmarked) [U, 7-Methyl-3-oxo-5-phenyl-2-[5-(3-trifluoromethyl-phenyl)-furan-2-ylmethylene]-2,3-dihydro-5H-thiazolo[3,2-a]pyrimidine-6-carboxylicacid ethyl ester], the MarA inhibition class result is “**”.

With `CCOC(=O)C1=C(C)N=c2sc(=Cc3ccc(-c4ccc(C)c([N+](=O)[O-])c4)o3)c(=O)n2C1c1ccc(N(C)C)cc1` (centres unmarked) [X, 5-(4-Dimethylamino-phenyl)-7-methyl-2-[5-(4-methyl-3-nitro-phenyl)-furan-2-ylmethylene]-3-oxo-2,3-dihydro-5H-thiazolo[3,2-a]pyrimidine-6-carboxylicacid ethyl ester], the MarA inhibition class entry was “**”. For `CCOC(=O)C1=C(C)N=c2sc(=Cc3ccc(-c4cccc(C(=O)O)c4)o3)c(=O)n2C1c1c(OC)ccc2ccccc12` (centres unmarked) [N, 2-[5-(3-Carboxy-phenyl)-furan-2-ylmethylene]-5-(2-methoxy-naphthalen-1-yl)-7-methyl-3-oxo-2,3-dihydro-5H-thiazolo[3,2-a]pyrimidine-6-carboxylicacid ethyl ester], the MarA inhibition class entry is “**”.

Consider `CCCCSc1nnc2c(n1)OC(c1ccc(OC)cc1OC)Nc1ccccc1-2` (centres unmarked) [H, 3-Butylsulfanyl-6-(2,4-dimeethoxy-phenyl)-6,7-dihydro-5-oxa-1,2,4,7-tetraaza-dibenzo[a,c]cycloheptene], for which the MarA inhibition class entry is “*”. Regarding `O=C1C(=C2NC(c3ccccn3)C3C(=O)N(c4ccccc4)C(=O)C23)C(=O)c2ccccc21` (centres unmarked) [BB, 4-(1,3-dioxo-1,3-dihydro-2H-inden-2-yliden)-2-phenyl-6-(2-pyridinyl)tetrahydro pyrrolo[3,4-c]pyrrole-1,3(2H,3aH)-dione], the MarA inhibition class result is “*”.

`O=C(O)COn1c(-c2ccccc2)nc2ccc([N+](=O)[O-])cc21` [AH, (6-Nitro-2-phenyl-benzoimidazol-1-yloxy)-acetic acid]: the MarA inhibition class entry was “**”. In the case of `O=C1C=Cc2ccccc2/C1=N/Oc1ccc2noc3c2c1C(=O)c1ccccc1-3` [Z, [1,2]Naphthoquinone 1-[O-(6-oxo-6H-anthra[1,9-cd]isoxazol-5-yl)-oxime]] it was “*”; in that of `O=c1cc(-c2ccccc2)oc2ccc(F)cc12` [AZ, 6-fluoro-2-phenyl-4H-chromen-4-one], “**”; in that of `CCCSc1nnc2c(n1)OC(c1ccc(OC)cc1)Nc1ccccc1-2` (centres unmarked) [K, 6-(4-Methoxy-phenyl)-3-propylsulfanyl-6,7-dihydro-5-oxa-1,2,4,7-tetraaza-dibenzo[a,c]cycloheptene], “*”. Turning to `O=c1/c(=C\c2c[nH]nc2-c2ccccc2)sc2nc3ccccc3n12` [M, 2-(3-Phenyl-1H-pyrazol-4-ylmethylene)-benzo[4,5]imidazo[2,1-b]thiazol-3-one], the MarA inhibition class result was “**”.

As to `CCSc1nnc2c(n1)OC(c1ccc(O)c(O)c1)Nc1ccccc1-2` (centres unmarked) [E, 4-(3-Ethylsulfanyl-6,7-dihydro-5-oxa-1,2,4,7-tetraza-dibenzo[a,c]cyclohepten-6-yl)-benzene-1,2-diol], the MarA inhibition class result was “*”. As to `O=C1C(=C2NC(c3ccccn3)C3C(=O)N(c4ccccc4)C(=O)C23)C(=O)c2ccccc21` (centres unmarked) [AF, 4-(1,3-Dioxo-indan-2-ylidene)-2-phenyl-6-pyridin-2-yl-tetrahydro-pyrrolo[3,4-c]pyrrole-1,3-dione], the MarA inhibition class result is reported as “**”. For the compound `O=C(O)COn1c(-c2ccccc2)nc2ccc([N+](=O)[O-])cc21` [BD, 2-[(6-nitro-2-phenyl-1H-1,3-benzimidazol-1-yl)oxy]acetic acid], the MarA inhibition class entry is given as “*”.

Regarding `O=c1cc(-c2ccc(O)cc2)oc2ccccc12` [BG, 2-(4-hydroxyphenyl)-4H-chromen-4-one], the MarA inhibition class result was “*”. Turning to `COc1ccc2c(=O)cc(-c3ccccc3)oc2c1` [BA, 7-methoxy-2-phenyl-4H-chromen-4-one], the MarA inhibition class result is “*”. With `CCOC(=O)C1=C(C)N=c2sc(=Cc3ccc(-c4cccc(C(=O)O)c4)o3)c(=O)n2C1c1ccc(N(C)C)cc1` (centres unmarked) [W, 2-[5-(3-Carboxy-phenyl)-furan-2-ylmethylene]-5-(4-dimethylamino-phenyl)-7-methyl-3-oxo-2,3-dihydro-5H-thiazolo[3,2-a]pyrimidine-6-carboxylicacid ethyl ester], the MarA inhibition class entry is given as “**”. Then `Cc1ccc(COn2c(-c3ccccc3)nc3ccc([N+](=O)[O-])cc32)cc1` [AJ, 1-(4-Methyl-benzyloxy)-6-nitro-2-phenyl-1H-benzoimidazole], with “*”. For `CCCCSc1nnc2c(n1)OC(c1ccc(OCC)cc1)Nc1ccccc1-2` (centres unmarked) [J, 3-Butylsulfanyl-6-(4-ethoxy-phenyl)-6,7-dihydro-5-oxa-1,2,4,7-tetraaza-dibenzo[a,c]cycloheptene], the MarA inhibition class result is listed as “*”. In the case of `CCOC(=O)C(C(N)=O)C1(O)OC(c2ccc(C)cc2)=CC1=O` (centres unmarked) [BC, 2-(2-Hydroxy-3-oxo-5-p-tolyl-2,3-dihydro-furan-2-yl)-malonamic acid ethylester], the MarA inhibition class entry was “*”. As to `COn1c(-c2ccc(C)cc2)nc2ncccc21` [BF, 1-methoxy-2-(4-methylphenyl)-1H-imidazo[4,5-b]pyridine], the MarA inhibition class result is “*”. As to `CCCSc1nnc2c(n1)OC(c1ccc(-c3cccc([N+](=O)[O-])c3)o1)Nc1ccccc1-2` (centres unmarked) [L, 6-[5-(3-Nitro-phenyl)-furan-2-yl]-3-propylsulfanyl-6,7-dihydro-5-oxa-1,2,4,7-tetraaza-dibenzo[a,c]cycloheptane], the MarA inhibition class entry is reported as “**”.

Regarding `CCCSc1nnc2c(n1)OC(c1ccc(OCc3ccccc3)cc1)Nc1ccccc1-2` (centres unmarked) [F, 6-(4-Benzyloxy-phenyl)-3-propylsulfanyl-6,7-dihydro-5-oxa-1,2,4,7-tetraaza-dibenzo[a,c]cycloheptene], the MarA inhibition class entry is on record as “**”.

Values taken from patent US7405235B2, “Transcription factor modulating compounds and methods of use thereof” (Paratek Pharmaceuticals, Inc., priority 2001, dated 2008).
